Measurements as given in publication PMC5848469 (Combinatorial chemistry & high throughput screening, 2015).

Experiments:
[1] = tested on: mammalian tubulin; conditions: fold less potency than on hookworm tubulin; cited from earlier work
[2] = target: KIT (D816V) (Homo sapiens, UniProt P10721, D816V); assay: Kinase active site-directed competition binding assay; conditions: read-out: Percent Control at 10μM
[3] = target: KIT (Homo sapiens, UniProt P10721); assay: as above; conditions: read-out: Percent Control at 10μM
[4] = tested on: hookworm tubulin; conditions: cited from earlier work

KIT (D816V), sequence (P10721 26-976 D816V): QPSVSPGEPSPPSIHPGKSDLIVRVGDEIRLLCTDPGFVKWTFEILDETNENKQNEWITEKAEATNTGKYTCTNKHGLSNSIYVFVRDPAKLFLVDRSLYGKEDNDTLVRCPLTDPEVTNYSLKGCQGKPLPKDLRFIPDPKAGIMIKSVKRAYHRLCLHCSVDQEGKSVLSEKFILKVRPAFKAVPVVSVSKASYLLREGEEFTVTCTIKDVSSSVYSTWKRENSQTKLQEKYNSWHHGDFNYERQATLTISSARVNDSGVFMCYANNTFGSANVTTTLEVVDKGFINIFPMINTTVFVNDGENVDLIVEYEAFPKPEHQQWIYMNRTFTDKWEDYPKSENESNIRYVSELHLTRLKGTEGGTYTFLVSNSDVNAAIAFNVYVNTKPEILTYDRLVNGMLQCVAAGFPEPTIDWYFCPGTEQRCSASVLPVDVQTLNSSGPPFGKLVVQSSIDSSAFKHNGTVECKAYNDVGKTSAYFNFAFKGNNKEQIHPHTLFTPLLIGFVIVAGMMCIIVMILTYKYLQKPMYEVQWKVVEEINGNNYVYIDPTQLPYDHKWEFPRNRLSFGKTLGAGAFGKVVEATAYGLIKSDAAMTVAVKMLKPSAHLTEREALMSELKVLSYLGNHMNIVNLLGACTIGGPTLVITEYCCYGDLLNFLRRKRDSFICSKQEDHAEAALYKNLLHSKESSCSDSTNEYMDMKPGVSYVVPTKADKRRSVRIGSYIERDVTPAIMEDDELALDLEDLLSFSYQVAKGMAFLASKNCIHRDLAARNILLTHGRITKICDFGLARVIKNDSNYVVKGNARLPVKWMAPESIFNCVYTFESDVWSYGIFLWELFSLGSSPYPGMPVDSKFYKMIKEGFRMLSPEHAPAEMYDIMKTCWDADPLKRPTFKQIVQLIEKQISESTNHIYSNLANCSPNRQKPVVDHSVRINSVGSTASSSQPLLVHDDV
KIT, sequence (P10721 26-976): as the sequence (P10721 26-976 D816V) above, with V791D counted along it

remaining binding at 10 µM [2]: 33% | remaining binding at 10 µM [3]: 7.4%
Structure (SMILES): COC(=O)Nc1nc2ccc(C(=O)c3ccccc3)cc2[nH]1 [MBZ, mebendazole]
potency on mammalian tubulin relative to hookworm tubulin (fold less) [1]: 1000 x | inhibition of hookworm tubulin (potency in words) [4]: potent nanomolar inhibition
